Experimental data: the supplement of paper PMC11451515

Key:
Assay in all cases: AUC of viability dose-response curve (% viability x log10 dose units); higher = less sensitive
Settings in all cases: 48 h
SEM cells = tested on: SEM cells
How it was run: (§1)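 Leukemia cells adapted to each medium were seeded in 1536-well plates (500 or 1000 cells/well). They were dosed with library compounds in DMSO at 11 threefold doses, 47 μM to 0.79 nM, for 48 h at 37°C. CellTiter-Glo One luminescence was normalised per plate to DMSO and cell-free wells. Area under the curve was integrated by trapezoidal rule over log10 doses on a four-parameter log-logistic fit; curves exceeding full viability were scaled and curves failing quality control removed.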

P12-Ichikawa = tested on: P12-Ichikawa
How it was run: as §1

NOMO1 = tested on: NOMO1
How it was run: as §1

[1] = RPMI 5 mM glucose + 10% dialyzed FBS

| SMILES | AUC of viability dose-response curve (SEM cells; HPLM + 10% dialyzed FBS) | AUC of viability dose-response curve (SEM cells; RPMI 5 mM glucose + 10% FBS) | AUC of viability dose-response curve (SEM cells; [1]) | AUC of viability dose-response curve (P12-Ichikawa; HPLM + 10% dialyzed FBS) | AUC of viability dose-response curve (P12-Ichikawa; RPMI 5 mM glucose + 10% FBS) | AUC of viability dose-response curve (P12-Ichikawa; [1]) | AUC of viability dose-response curve (NOMO1; HPLM + 10% dialyzed FBS) | AUC of viability dose-response curve (NOMO1; RPMI 5 mM glucose + 10% FBS) | AUC of viability dose-response curve (NOMO1; [1]) |
| --- | --- | --- | --- | --- | --- | --- | --- | --- | --- |
| C\C1=C\N([C@H]2C[C@H](N=[N+]=[N-])[C@@H](CO)O2)C(=O)NC1=O | 388 | 434 | 425 | 419 | 425 | 452 | 365 | 339 | 362 |
| O=C(/C=C/c1c(C(=O)[O-])[nH]c2cc(Cl)cc(Cl)c12)Nc1ccccc1 | 466 | 466 | 463 | 466 | 464 | 467 | 471 | 444 | 462 |
| CC(=O)CC(C1=CC=CC=C1)C/2=C(O)/C3=CC=CC=C3OC2=O (stereo not given) | 433 | 403 | 431 | 462 | 469 | 465 | 408 | 447 | 471 |
| CC(C)[C@@H](C[S+](=O)([O-])C(C)C)N1C(=O)[C@@](C)(CC(=O)O)C[C@H](c2cccc(Cl)c2)[C@H]1c1ccc(Cl)cc1 | 355 | 289 | 360 | 278 | 320 | 335 | 306 | 357 | 362 |
| Cc1nccn1CC1CCc2c(c3ccccc3n2C)C1=O (stereo not given) | 441 | 453 | 429 | 448 | 422 | 462 | 447 | 465 | 462 |
| Cc1cccc(C#Cc2ccccc2)n1 | 456 | 455 | 449 | 456 | 445 | 450 | 461 | 464 | 463 |
| Cc1c(Cn2c(C)nc3c(C(=O)O)cc(N4CCOCC4)cc32)cccc1C(F)(F)F | 469 | 463 | 455 | 472 | 463 | 470 | 448 | 474 | 465 |
| CC1(C)OC2CC3C4CC(F)C/5=C/C(=O)/C=C\C5(C)C4C(O)CC3(C)[C@@]2(O1)C(=O)CO (stereo not given in full) | 386 | 360 | 354 | 390 | 340 | 325 | 454 | 465 | 456 |
| O=C(/C=C/c1cccc([S+](=O)([O-])Nc2ccccc2)c1)NO | 284 | 277 | 289 | 362 | 352 | 365 | 396 | 402 | 397 |
| Clc1cc(Cl)cc(CNc2ncncc2-c2ccc3c(c2)OCO3)c1 | 441 | 437 | 435 | 431 | 429 | 450 | 414 | 412 | 418 |
| Cn1cc(-c2ccc3nnc(C(F)(F)c4ccc5ncccc5c4)n3n2)cn1 | 463 | 469 | 455 | 447 | 452 | 454 | 469 | 435 | 470 |
| CCn1c(-c2nonc2N)nc2cncc(CNC3CCNCC3)c21 | 414 | 357 | 417 | 399 | 424 | 411 | 419 | 437 | 443 |
| COc1cc(O)c2c(c1)C1OC1C[C@H](O)[C@H](O)C(=O)/C=C\C[C@H](C)OC2=O (stereo not given in full) | 394 | 394 | 384 | 443 | 441 | 442 | 418 | 427 | 427 |
| C[C@H]1C[C@H]2[C@@H]3CCC4=CC(=O)C=C[C@]4(C)[C@@]3(F)[C@@H](O)C[C@]2(C)[C@@]1(O)C(=O)CO | 358 | 338 | 305 | 362 | 322 | 303 | 429 | 470 | 459 |
| COc1cc2c(Oc3ccc(NC(=O)C4(C(=O)Nc5ccc(F)cc5)CC4)cc3F)ccnc2cc1OCCCN1CCOCC1 | 136 | 149 | 105 | 291 | 296 | 299 | 334 | 343 | 311 |
| CCCCCCCc1ccc(CCc2cccc(O)c2C(=O)O)cc1 | 474 | 474 | 461 | 445 | 434 | 435 | 472 | 445 | 441 |
| CN(C/C=C/C#CC(C)(C)C)Cc1cccc2ccccc12 | 452 | 450 | 455 | 475 | 468 | 444 | 458 | 440 | 447 |
| OC[C@H](Cc1ccccc1)Nc1nc(Oc2ccc3c(c2)CCC3)nc2c1ncn2Cc1ccc(-c2ccccc2)cc1 | 455 | 428 | 432 | 454 | 431 | 418 | 463 | 434 | 458 |
| CCc1c(C(=O)C(N)=O)c2c(OCC(=O)O)cccc2n1Cc1ccccc1 | 462 | 464 | 461 | 471 | 460 | 452 | 442 | 465 | 463 |
| OC(=O)\C1=C\N(C2=CC=C(F)C=C2)C3=C(C=C(F)C(=C3)N4CCNCC4)C1=O | 446 | 476 | 448 | 457 | 464 | 452 | 447 | 475 | 451 |
| CC(C)Nc1cc(C(F)(F)F)cc2nc(NC(=O)c3cccnc3)nn12 | 340 | 323 | 329 | 334 | 364 | 350 | 406 | 394 | 386 |
| O=C1C[C@@H](c2ccc(O)cc2)Oc2cc(O)cc(O)c21 | 468 | 382 | 470 | 433 | 462 | 456 | 437 | 476 | 458 |
| OC[C@H]1O[C@H]([C@@H](F)[C@@H]1O)N2\C=C/C(=O)NC2=O | 454 | 463 | 432 | 460 | 475 | 449 | 470 | 430 | 464 |
| CC(=O)C\1=C(/C)C2=CN=C(NC3=CC=C(C=N3)N4CCNCC4)N=C2N(C5CCCC5)C1=O | 357 | 378 | 365 | 420 | 400 | 392 | 424 | 429 | 406 |
| CC1=C(C=CC=C1)N2\C(=N/C3=C(C(=CC=C3)C)C2=O)C[N]4N=CC5=C4N=CN=C5N | 469 | 470 | 471 | 368 | 366 | 377 | 329 | 307 | 341 |
| CC(C)Oc1cc(Nc2nc(N[C@@H](C)c3ccc(F)cn3)ncc2Cl)n[nH]1 | 319 | 310 | 291 | 344 | 349 | 366 | 449 | 409 | 412 |
| O=C(NC[C@H]1CN(c2ccc(N3CCOCC3=O)cc2)C(=O)O1)c1ccc(Cl)s1 | 423 | 459 | 444 | 372 | 376 | 395 | 345 | 312 | 345 |
| O=C1Nc2cc(Br)ccc2/C1=C1/Nc2ccccc2/C1=N\O | 296 | 299 | 290 | 365 | 377 | 382 | 366 | 391 | 401 |
| CC(C)C[C@H](NC(=O)[C@@H](NC(=O)c1cccc(-c2ccccc2)n1)[C@@H](C)O)B(O)O | 155 | 149 | 149 | 197 | 184 | 201 | 212 | 218 | 230 |
| CC(=O)N1CCN(c2ccc(OCc3nn(C)c(C)c3-c3cccc4c(CCCOc5cccc6ccccc56)c(C(=O)O)n(Cc5cccnc5)c34)cc2)CC1 | 457 | 440 | 464 | 416 | 418 | 445 | 368 | 355 | 376 |
